{"source": "paper PMC9027131", "about": "“Dual PI3K/Akt Inhibitors Bearing Coumarin-Thiazolidine Pharmacophores as Potential Apoptosis Inducers in MCF-7 Cells” (Pharmaceuticals, 2022)", "key": {"[1]": {"tested_on": "MCF 10 non-tumorigenic epithelial cell line", "assay": "MTT assay in non-cancerous epithelial cells (MCF 10)", "format": "cell-based", "procedure": "MCF-7 breast cancer cell line (ATCC® HTB-22™) plus non-tumorigenic epithelial cell line (MCF 10, ATCC® CRL-10317™) were supplied from VACSERA (Cairo, Egypt) and cultured in Dulbecco’s Modified Eagle Medium (Invitrogen-Life Technologies, Carlsbad, CA, USA) with 1% antibiotic solution (streptomycin–penicillin) plus 10% fetal bovine serum (Hyclone) in a 5% (v/v) humidified CO2 incubator at 37 °C.\nFirstly, cells were kept in a humidified atmosphere (37 °C, 24 h), and then incubated with serial concentrations of the tested compounds. After 48 h, the medium was aspirated, and then cells were incubated with 5% MTT solution (M-5655; Sigma Aldrich, St. Louis, MO USA) (200 µL/well, 2 h), allowing the dye to metabolize into the colored insoluble formazan complex that was then dissolved in the appropriate solubilization solution (M-8910) (200 µL/well), for 30 min with gentle mixing at room temperature. The UV absorbance was measured using a microplate reader (570 nm), and cell viability was determined with respect to untreated control cells."}, "[2]": {"tested_on": "MCF-7 cells", "assay": "Annexin V-FITC/PI apoptosis assay by flow cytometry", "format": "cell-based, human", "excerpt": "Remarkably, clinical oncology aims at developing novel targeted cancer therapies that could induce apoptosis in neoplastic cells to enhance their eradication. Since loss of apoptosis is closely related to cancer cell survival and abnormal growth, induction of apoptotic signaling pathways is a crucial mechanism in targeted cancer therapy. To further explore the link between apoptosis rates and VIIb treatment, the pro-apoptotic activity of this novel compound was investigated by flow cytometry using both Annexin V (V) and propidium iodide (PI) dyes. A distinctive feature of early apoptosis is phosphatidylserine transfer toward the cellular surface. Thus, phosphatidylserine can be detected by fluorochrome-tagged anticoagulant protein V. Therefore, the viable cells remained unstained (V^−/PI^−).\nControl untreated and MCF-7 cells treated with compound VIIb at its IC50 (µM) for 48 h were subjected to apoptotic analysis using Annexin V (V) and propidium iodide (PI) fluorescent dyes.\n(§1) Cell cycle analysis and apoptosis rates following VIIb treatment were investigated using a Propidium Iodide Flow Cytometry Kit (ab139418; Abcam, Cambridge, UK) and Annexin V-FITC apoptosis kit (Catalog: K101-25; BioVision Research Products, San Francisco, CA, USA), respectively, following the manufacturer’s instructions as stated by a previous study."}, "[3]": {"molecular_target": "T1, PI3K-γ (Homo sapiens, UniProt P48736)", "T1 construct": "purchased BPS Bioscience, Inc 79803", "T1 sequence (P48736 whole entry, canonical isoform)": "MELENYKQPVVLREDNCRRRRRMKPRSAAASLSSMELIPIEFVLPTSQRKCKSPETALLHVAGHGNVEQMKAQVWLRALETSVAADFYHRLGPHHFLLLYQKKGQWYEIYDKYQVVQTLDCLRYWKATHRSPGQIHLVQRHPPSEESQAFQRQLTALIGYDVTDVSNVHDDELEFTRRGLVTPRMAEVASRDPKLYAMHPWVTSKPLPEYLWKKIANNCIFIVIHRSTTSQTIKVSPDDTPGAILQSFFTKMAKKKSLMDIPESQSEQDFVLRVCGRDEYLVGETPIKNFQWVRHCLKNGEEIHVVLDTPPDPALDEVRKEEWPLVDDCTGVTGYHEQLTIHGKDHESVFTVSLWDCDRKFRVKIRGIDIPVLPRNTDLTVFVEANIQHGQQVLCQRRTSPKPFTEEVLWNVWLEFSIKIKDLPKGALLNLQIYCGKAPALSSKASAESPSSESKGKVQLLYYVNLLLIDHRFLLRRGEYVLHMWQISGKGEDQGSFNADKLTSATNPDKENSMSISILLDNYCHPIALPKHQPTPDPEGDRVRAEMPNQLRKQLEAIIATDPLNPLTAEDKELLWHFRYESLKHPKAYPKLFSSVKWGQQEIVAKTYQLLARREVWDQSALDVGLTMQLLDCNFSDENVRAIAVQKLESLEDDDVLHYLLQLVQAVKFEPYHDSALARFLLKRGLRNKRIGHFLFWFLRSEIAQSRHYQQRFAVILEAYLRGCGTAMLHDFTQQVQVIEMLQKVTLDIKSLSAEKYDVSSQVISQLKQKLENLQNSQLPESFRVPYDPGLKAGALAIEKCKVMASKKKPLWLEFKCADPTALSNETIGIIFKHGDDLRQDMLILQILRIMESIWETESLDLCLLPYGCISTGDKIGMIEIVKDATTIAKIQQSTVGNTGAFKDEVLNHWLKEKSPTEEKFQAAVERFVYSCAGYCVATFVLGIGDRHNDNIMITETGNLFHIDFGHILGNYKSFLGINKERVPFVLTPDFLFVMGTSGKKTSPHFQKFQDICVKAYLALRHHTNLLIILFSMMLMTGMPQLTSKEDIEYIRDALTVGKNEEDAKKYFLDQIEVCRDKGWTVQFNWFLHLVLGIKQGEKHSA", "T1 sequence (Q8WYR1 whole entry partner, canonical isoform)": "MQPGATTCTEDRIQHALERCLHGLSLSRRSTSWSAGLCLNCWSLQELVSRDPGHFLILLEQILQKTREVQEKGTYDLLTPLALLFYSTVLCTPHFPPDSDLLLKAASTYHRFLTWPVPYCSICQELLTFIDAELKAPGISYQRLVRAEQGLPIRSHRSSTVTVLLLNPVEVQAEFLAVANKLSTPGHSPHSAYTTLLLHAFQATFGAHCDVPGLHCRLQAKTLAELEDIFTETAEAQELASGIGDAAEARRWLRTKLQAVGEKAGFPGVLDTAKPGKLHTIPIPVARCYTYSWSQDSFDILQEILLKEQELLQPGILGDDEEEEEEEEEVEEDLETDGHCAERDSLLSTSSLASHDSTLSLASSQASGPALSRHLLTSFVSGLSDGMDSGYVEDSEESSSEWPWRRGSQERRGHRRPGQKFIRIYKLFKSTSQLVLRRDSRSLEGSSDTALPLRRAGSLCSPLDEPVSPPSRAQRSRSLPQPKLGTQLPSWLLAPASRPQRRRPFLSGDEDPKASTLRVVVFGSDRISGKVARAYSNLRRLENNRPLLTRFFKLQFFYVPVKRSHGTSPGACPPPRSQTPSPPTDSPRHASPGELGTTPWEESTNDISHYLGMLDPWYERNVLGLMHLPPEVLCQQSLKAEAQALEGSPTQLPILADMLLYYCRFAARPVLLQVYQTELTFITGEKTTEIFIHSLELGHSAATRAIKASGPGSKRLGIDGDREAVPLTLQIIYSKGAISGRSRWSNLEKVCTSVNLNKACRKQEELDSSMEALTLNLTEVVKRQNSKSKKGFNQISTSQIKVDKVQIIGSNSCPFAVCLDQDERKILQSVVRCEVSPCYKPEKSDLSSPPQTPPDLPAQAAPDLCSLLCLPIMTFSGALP", "assay": "PI3Kγ (p110γ/PIK3R5) enzyme inhibition assay kit", "format": "biochemical", "conditions": "means ± sd, n = 3; read-out: IC50 (µM) PI3K-γ Isoform", "excerpt": "Accumulating evidence highlighted that PI3K signaling pathway upregulation is highly implicated in breast cancer development and disease progression as well as resistance to hormones and cytotoxic therapy. Therefore, it is essential to elucidate the effect of the novel compound, VIIb, on the PI3K/Akt signaling pathway by using in vitro PI3K class 1A enzyme inhibition assay conducted on PI3K-α and PI3K-γ isoforms as well as an Akt-1 enzyme inhibition assay. […] Furthermore, targeting the PI3K-γ isoform in breast cancer could contribute to enhancing the anti-tumor immunity.\nThe in vitro inhibition of PI3K and Akt kinase activities by VIIb was assessed using a PI3Kα (p110α/p85) assay kit (Catalog #79781; BPS Bioscience, Inc, San Diego, CA, USA), PI3Kγ (p110γ/PIK3R5) assay kit (Catalog #79803; BPS Bioscience, Inc, San Diego, CA, USA), and Akt Kinase Activity assay kit (ab139436; Abcam, Cambridge, UK) following the manufacturer’s instructions as described previously. The results were expressed as IC50 values using dose–response curves and linear regression equations."}, "[4]": {"tested_on": "MCF-7 cells", "assay": "Cell cycle analysis by flow cytometry (propidium iodide)", "format": "cell-based, human", "conditions": "MCF-7, treated at IC50, 48 h", "procedure": "VIIb-treated cells were subjected to cell cycle phase distribution analysis as well as apoptosis rates determination by flow cytometric analysis in MCF-7 cells, as reported.\nControl and VIIb-treated (IC50 µM, 48 h) MCF-7 cells were harvested and then subjected to cell cycle analysis by flow cytometry.\nas §1"}, "[5]": {"conditions": "MCF-7, with respect to control cells"}}, "data": [{"smiles": "C/C(=N/N=C1/SCC(=O)N1C(=O)c1ccccc1)c1c(O)ccc2c(C)cc(=O)oc12", "note": "[VIIb]", "values": [{"measurement": "IC50", "setting": "[1]; Homo sapiens, MCF10, MTT assay, non-cancerous epithelial cells, means ± sd, n = 3", "value": "9.52 ± 0.6", "unit": "µM"}, {"measurement": "Selectivity Index MCF-10/MCF-7", "setting": "[1]; ratio of IC50 MCF-10 to IC50 MCF-7", "value": 9.24}, {"measurement": "Apoptosis % Late (V+/PI+)", "setting": "[2]; MCF-7, treated at IC50, 48 h, control 0.17", "value": 21.05, "unit": "%"}, {"measurement": "Apoptosis % Early (V+/PI−)", "setting": "[2]; MCF-7, treated at IC50, 48 h, control 0.48", "value": 2.51, "unit": "%"}, {"measurement": "Necrosis%", "setting": "[2]; MCF-7, treated at IC50, 48 h, control 0.90", "value": 11.69, "unit": "%"}, {"measurement": "Apoptosis % Total", "setting": "[2]; MCF-7, treated at IC50, 48 h, control 1.55", "value": 35.25, "unit": "%"}, {"measurement": "fold increase in early apoptotic cells", "setting": "[2]; [5]", "value": 5, "unit": "fold"}, {"measurement": "fold increase in late apoptotic cells", "setting": "[2]; [5]", "value": 100, "unit": "fold"}, {"measurement": "IC50", "setting": "[3]", "value": "34.7 ± 1.88", "unit": "µM"}, {"measurement": "DNA Content % Pre G1", "setting": "[4]; control 1.55", "value": 35.25, "unit": "%"}, {"measurement": "DNA Content % G2/M", "setting": "[4]; control 9.71", "value": 5.59, "unit": "%"}, {"measurement": "DNA Content % S", "setting": "[4]; control 36.58", "value": 46.02, "unit": "%"}, {"measurement": "DNA Content % G0/G1", "setting": "[4]; control 53.71", "value": 48.39, "unit": "%"}]}]}
